Legend:
[1] = system: HOSE6.3 cells; test: Presto Blue cell viability assay in non-tumoral cells, single drugs and Paclitaxel combinations (Chou–Talalay, Bliss, HSA analysis); conditions: for IC50 (in words) / IC50: 48 h; for IC50 (in words): considered concentration ranges; for Cellular viability (%) Media: HOSE6.3, 48 h, alone or combined
Experimental: (§1) To determine the effect of single and combination drug treatments on the cellular viability of cell lines, a resazurin-based assay—Presto Blue (PB)—was performed. Briefly, 5 × 10^3 cells/well were seeded into a 96-well plate in complete media, incubated at 37 °C and 5% CO2 and allowed to adhere overnight prior to drug exposure. After 24 h, cells were exposed to increasing concentrations of drugs and incubated under the same conditions. After 48 h, culture medium was removed, and 50 μL/well of PrestoBlue^TM Cell Viability Reagent 1× (ThermoFisher Scientific) was added. Cells were incubated for 45 min, protected from light, at 37 °C and 5% CO2.
(§2) The IC50 values were first obtained for each drug alone for OVCAR8, OVCAR8 PTX R P and HOSE6.3 cell lines. […] A mutually exclusive model, assuming that drugs act through […] mechanisms, was used for this analysis. […] The CI is a quantitative representation of pharmacological interactions (i.e., CI < 1, synergism; =1, additive interactions; and >1, antagonism), plotted on y-axis as a function of effect level (Fa) on the x-axis to assess drug synergism between drug combinations. Additionally, we estimated the expected drug combination responses based on the Bliss Independence and Highest Single Agent (HSA) reference models using SynergyFinder 2.0 Software. Positive and negative synergy score values denote synergy and antagonism, respectively. The cNMF algorithm implemented in SynergyFinder 2.0 was used for estimation of outlier measurements.

[2] = system: OVCAR8 cells; test: Presto Blue cell viability assay, single drugs and Paclitaxel combinations (Chou–Talalay, Bliss, HSA analysis); conditions: for Cellular viability (%) Media: OVCAR8, 48 h, alone or combined
Experimental: as §1, §2

[3] = system: OVCAR8 PTX R P cells; test: as above; conditions: for Cellular viability (%) Media: alone or combined
Experimental: as §1, §2

[4] = Presto Blue cell viability assay in non-tumoral cells, single drugs and Paclitaxel combinations (Chou–Talalay, Bliss, HSA analysis); conditions: human, HOSE6.3 cells (non-tumoral)
Experimental: as §1, §2

[5] = OVCAR8 PTX R P, 48 h, 0.25 x IC50 of each drug
[6] = OVCAR8 PTX R P, 48 h, 0.5 x IC50 of each drug
[7] = OVCAR8 PTX R P, 48 h, 2 x IC50 of each drug
[8] = OVCAR8 PTX R P, 48 h, IC50 of each drug

IC50 ([2]; Homo sapiens, OVCAR-8, 48 h) [µM] | IC50 ([3]; Homo sapiens, OVCAR-8, 48 h) [µM] | Compound | IC50 (in words) ([1]; HOSE6.3, single agent) | Cellular viability (%) Media ([2]; 0.25 x IC50 of each drug) [%] | Cellular viability (%) Media ([2]; 0.5 x IC50 of each drug) [%] | Cellular viability (%) Media ([2]; 2 x IC50 of each drug) [%] | Cellular viability (%) Media ([2]; IC50 of each drug) [%] | Cellular viability (%) Media [3, 5] [%] | Cellular viability (%) Media [3, 6] [%] | Cellular viability (%) Media [3, 7] [%] | Cellular viability (%) Media [3, 8] [%] | also measured
0.801 ± 0.061 | 0.85 ± 0.142 | O=C(O)C[C@H](O)C[C@H](O)/C=C/c1c(C2CC2)nc2ccccc2c1-c1ccc(F)cc1 [Pitavastatin] | not obtaining IC50 values in the considered concentration ranges | 61.378 | 51.912 | 27.970 | 45.624 | 59.998 | 50.426 | 28.330 | 45.406 | viability at 48 h, 0.25 x IC50 [4]: 81.8%; viability at 48 h, 0.5 x IC50 [4]: 76.5%; viability at 48 h, 1 x IC50 [4]: 68.5%; viability at 48 h, 2 x IC50 [4]: 65.9%; viability at 48 h, 4 x IC50 [4]: 61.4%
39.1 ± 3.38 | 35.6 ± 0.48 | CCC(C)n1ncn(-c2ccc(N3CCN(c4ccc(OCC5COC(Cn6cncn6)(c6ccc(Cl)cc6Cl)O5)cc4)CC3)cc2)c1=O (stereo not drawn) [Itraconazole] |  |  |  |  |  |  |  |  |  | IC50 ([1]; Homo sapiens): 38.6 ± 5.11 µM

Continued, compound first:

Compound | IC50 ([2]; Homo sapiens, OVCAR-8, 48 h) [µM] | IC50 ([3]; Homo sapiens, OVCAR-8, 48 h) [µM] | IC50 (in words) ([1]; HOSE6.3, single agent) | Cellular viability (%) Media ([2]; 0.25 x IC50 of each drug) [%] | Cellular viability (%) Media ([2]; 0.5 x IC50 of each drug) [%] | Cellular viability (%) Media ([2]; 2 x IC50 of each drug) [%] | Cellular viability (%) Media ([2]; IC50 of each drug) [%] | Cellular viability (%) Media [3, 5] [%] | Cellular viability (%) Media [3, 6] [%] | Cellular viability (%) Media [3, 7] [%] | Cellular viability (%) Media [3, 8] [%] | also measured
CN(C)C(=N)N=C(N)N [Metformin] | 1500 ± 169 | 1460 ± 193 | not obtaining IC50 values in the considered concentration ranges |  |  |  |  |  |  |  |  | 
Ivermectin |  |  |  | 77.004 | 69.934 | 0.759 | 46.412 | 81.152 | 65.026 | 0.966 | 47.496 | Cellular viability (%) Media ([1]; 0.5 x IC50 of each drug): 99.694%; Cellular viability (%) Media ([1]; 2 x IC50 of each drug): 0.539%; Cellular viability (%) Media ([1]; 4 x IC50 of each drug): 0.000%; Cellular viability (%) Media ([1]; IC50 of each drug): 53.462%; IC50 ([1]; HOSE6.3, single agent): 12.6 ± 2.19 µM; Cellular viability (%) Media ([2]; 4 x IC50 of each drug): 0.867%; IC50 ([2]; OVCAR8, single agent, 48 h): 16 ± 2.91 µM; Cellular viability (%) Media ([3]; OVCAR8 PTX R P, 48 h, 4 x IC50 of each drug): 1.370%; IC50 ([3]; OVCAR8 PTX R P, single agent, 48 h): 15.5 ± 1.86 µM
NCCCC(O)(P(=O)(O)O)P(=O)(O)O [Alendronate] | 219 ± 13.6 | 196 ± 20.2 | not obtaining IC50 values in the considered concentration ranges |  |  |  |  |  |  |  |  | 
